Assay results: PubChem BioAssay (NCI)
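Growth conditions: 96-well plates. Treatment: test compound, 48 hours, 5 concentrations. Analysis: linear interpolation between bracketing concentrations; unreached endpoints set to highest concentration. Here, GI50 denotes the concentration required for 50% inhibition of growth. TGI: concentration producing complete growth inhibition.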

Key:
Assay in all cases: NCI-60 cell line screen, 48 h
[1] = test system: SN12C renal
[2] = test system: HL-60(TB) leukemia
[3] = test system: IGROV1 ovarian
[4] = test system: 786-0 renal
[5] = test system: UO-31 renal
[6] = test system: SK-MEL-5 melanoma
[7] = test system: BT-549 breast
[8] = test system: HT29 colon
[9] = test system: OVCAR-5 ovarian
[10] = test system: TK-10 renal
[11] = test system: HS 578T breast
[12] = test system: NCI-H460 lung
[13] = test system: A549 NSCLC
[14] = test system: U251 CNS
[15] = test system: UACC-257 melanoma
[16] = test system: MCF7 breast
[17] = test system: NCI-H522 lung
[18] = test system: CCRF-CEM leukemia
[19] = test system: K-562 leukemia
[20] = test system: HCT-116 colon
[21] = test system: RPMI-8226 leukemia
[22] = test system: SF-539 CNS
[23] = test system: OVCAR-8 ovarian
[24] = test system: HOP-62 NSCLC
[25] = test system: NCI-H226 lung
[26] = test system: HCC-2998 colon
[27] = test system: MALME-3M melanoma
[28] = test system: SR leukemia
[29] = test system: NCI/ADR-RES ovarian
[30] = test system: HCT-15 colon
[31] = test system: COLO 205 colon
[32] = test system: SF-268 CNS
[33] = test system: MOLT-4 leukemia
[34] = test system: PC-3 prostate
[35] = test system: M14 melanoma
[36] = test system: SK-MEL-2 melanoma
[37] = test system: SF-295 CNS
[38] = test system: NCI-H23 lung
[39] = test system: SK-MEL-28 melanoma
[40] = test system: OVCAR-4 ovarian
[41] = test system: OVCAR-3 ovarian
[42] = test system: EKVX NSCLC
[43] = test system: ACHN renal
[44] = test system: MDA-MB-435
[45] = test system: UACC-62 melanoma
[46] = test system: SK-OV-3 ovarian
[47] = test system: A498 renal
[48] = test system: HOP-92 NSCLC
[49] = test system: KM12 colon
[50] = test system: DU-145 prostate
[51] = test system: SNB-75 CNS
[52] = test system: MDA-MB-231 breast
[53] = test system: CAKI-1 renal
[54] = test system: RXF 393 renal
[55] = test system: SNB-19 CNS
[56] = test system: LOX IMVI melanoma
[57] = test system: T-47D breast

Structure (SMILES): NC(N)=N/N=C/c1c(-c2ccc(Cl)c([N+](=O)[O-])c2)nc2sc(Cl)cn12
- TGI [1]: 4.88 µM
- TGI [2]: > 100 µM
- TGI [3]: 3.18 µM
- TGI [4]: > 100 µM
- TGI [5]: 3.47 µM
- TGI [6]: 15.9 µM
- TGI [7]: 3.48 µM
- TGI [8]: 6.85 µM
- TGI [9]: > 100 µM
- TGI [10]: 58.5 µM
- TGI [11]: 5.54 µM
- TGI [12]: 8.08 µM
- TGI [13]: 7 µM
- TGI [14]: > 100 µM
- TGI [15]: 3.79 µM
- TGI [16]: 6.3 µM
- TGI [17]: 3.07 µM
- TGI [18]: > 100 µM
- TGI [19]: > 100 µM
- TGI [20]: > 100 µM
- TGI [21]: > 100 µM
- TGI [22]: 4.98 µM
- TGI [23]: 4.08 µM
- TGI [24]: > 100 µM
- TGI [25]: > 100 µM
- TGI [26]: > 100 µM
- TGI [27]: 5.58 µM
- TGI [28]: > 100 µM
- TGI [29]: > 100 µM
- TGI [30]: > 100 µM

Structure (SMILES): COc1cc(-c2ccc(Br)[nH]2)[nH]c1C=NCC(C)C
- TGI [1]: 7.51 µM
- TGI [2]: 3.9 µM
- TGI [3]: 7.09 µM
- TGI [4]: 3.27 µM
- TGI [31]: 2.48 µM
- TGI [32]: 9.1 µM
- TGI [5]: 4.77 µM
- TGI [6]: 2.87 µM
- TGI [33]: 4.04 µM
- TGI [8]: 3.54 µM
- TGI [9]: 5.05 µM
- TGI [34]: 4.39 µM
- TGI [35]: 4.28 µM
- TGI [10]: 6.56 µM
- TGI [11]: 5.26 µM
- TGI [12]: 7.92 µM
- TGI [13]: 3.62 µM
- TGI [36]: 3.07 µM
- TGI [14]: 3.88 µM
- TGI [37]: 3.67 µM
- TGI [38]: 4.14 µM
- TGI [15]: 5.34 µM
- TGI [16]: 2.47 µM
- TGI [18]: 3.24 µM
- TGI [19]: 14.2 µM
- TGI [20]: 2.86 µM
- TGI [21]: 2.67 µM
- TGI [39]: 7.67 µM
- TGI [22]: 5.84 µM
- TGI [40]: 12.8 µM
- TGI [23]: 6.28 µM
- TGI [41]: 3.79 µM
- TGI [24]: 3.39 µM
- TGI [42]: 2.03 µM
- TGI [43]: 4.19 µM
- TGI [44]: 4.54 µM
- TGI [45]: 7.33 µM
- TGI [26]: 4.67 µM
- TGI [46]: 6.91 µM
- TGI [47]: 7.16 µM
- TGI [48]: 4.01 µM
- TGI [49]: 3.94 µM
- TGI [27]: 3.13 µM
- TGI [50]: 2.9 µM
- TGI [51]: 9.45 µM
- TGI [52]: 6.64 µM
- TGI [53]: 7.64 µM
- TGI [30]: 3.15 µM

Structure (SMILES): COC(=O)c1ccc2[nH]c(O)c(C(=Nc3ccc(N(C)C(=O)CN4CCN(C)CC4)cc3)c3ccc(C)cc3)c2c1
- GI50 [4]: 0.336 µM
- TGI [4]: 1.78 µM
- GI50 [5]: 0.353 µM
- TGI [5]: 1.47 µM
- GI50 [6]: 1.11 µM
- TGI [6]: 2.39 µM
- GI50 [7]: 1.13 µM
- TGI [7]: 2.45 µM
- GI50 [11]: 0.105 µM
- TGI [11]: 0.977 µM
- GI50 [14]: 0.571 µM
- TGI [14]: 2 µM
- GI50 [54]: 0.221 µM
- TGI [54]: 1.05 µM
- GI50 [18]: 0.355 µM
- GI50 [20]: 0.124 µM
- TGI [20]: 1.27 µM
- GI50 [21]: 0.494 µM
- TGI [21]: 2.47 µM
- GI50 [22]: 0.307 µM
- TGI [22]: 1.18 µM
- GI50 [47]: 0.458 µM
- TGI [47]: 1.96 µM
- GI50 [27]: 0.618 µM
- TGI [27]: 1.88 µM
- GI50 [28]: 0.153 µM
- TGI [28]: 1.34 µM
- GI50 [53]: 0.132 µM
- TGI [53]: 1.48 µM

Structure (SMILES): CC(=O)c1cccc(Nc2nc3ccccc3c3occc23)c1
- TGI [1]: 45.6 µM
- TGI [55]: 60.9 µM
- TGI [2]: > 100 µM
- TGI [4]: 40 µM
- TGI [31]: > 100 µM
- TGI [32]: 86.7 µM
- TGI [6]: 48.6 µM
- TGI [7]: 39.6 µM
- TGI [33]: > 100 µM
- TGI [8]: > 100 µM
- TGI [9]: > 100 µM
- TGI [34]: > 100 µM
- TGI [35]: > 100 µM
- TGI [10]: 38.5 µM
- TGI [12]: > 100 µM
- TGI [13]: > 100 µM
- TGI [14]: 55.9 µM
- TGI [37]: 48.4 µM
- TGI [38]: 50.8 µM
- TGI [15]: > 100 µM
- TGI [56]: > 100 µM
- TGI [16]: > 100 µM
- TGI [54]: 41.7 µM
- TGI [18]: > 100 µM
- TGI [19]: > 100 µM
- TGI [20]: 50 µM
- TGI [21]: > 100 µM
- TGI [39]: > 100 µM
- TGI [22]: 35.6 µM
- TGI [40]: 61.5 µM
- TGI [57]: > 100 µM
- TGI [23]: 74.5 µM
- TGI [41]: > 100 µM
- TGI [24]: 34.6 µM
- TGI [42]: > 100 µM
- TGI [25]: 8.25 µM
- TGI [43]: 39.9 µM
- TGI [44]: > 100 µM
- TGI [26]: > 100 µM
- TGI [46]: 40.8 µM
- TGI [47]: 30.5 µM
- TGI [48]: 33 µM
- TGI [49]: > 100 µM
- TGI [27]: 53 µM
- TGI [28]: > 100 µM
- TGI [50]: > 100 µM
- TGI [51]: 45.2 µM
- TGI [29]: > 100 µM
- TGI [52]: 56.4 µM
- TGI [53]: > 100 µM
- TGI [30]: > 100 µM
